# Measurements from patent publication US20220324835A1 (Nurix Therapeutics, Inc., priority 2018, published 2022).
# What was measured:
# [1] = target: T1, Cbl-b (Homo sapiens, UniProt Q13191); assay: Cbl-b activity assay (Cbl-b inhibition assay), TR-FRET of Cbl-b interaction with UbcH5B-Ub; assay type: biochemical; settings: assay buffer with 100 mM NaCl, 60 nM Src kinase; read-out: Cbl-b activity IC50
# Summary of the method: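 UbcH5B (C85K) conjugated to N-terminally Bodipy-Fluorescein-labeled ubiquitin served as the fluorescent partner. After compound preincubation, Src kinase (60 nM) with 1 mM ATP and 5 mM MgCl2 (final) was added for 1.5 h, followed by a further 1 h incubation. Some values were obtained with 50 mM NaCl and 30 nM Src.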
# [2] = test system: T-cell; assay: IL-2 secretion from T-cells co-stimulated with anti-CD3 and anti-CD28 antibody (Biological Example 2); assay type: cell-based, human; settings: Homo sapiens, T-cell, fold change over baseline, primary human total T-cells, read-out: IL-2 secretion Anti-CD3/Anti-CD28 stimulation; for fold induction at 0.3 µM: 0.3 μM Cbl-b inhibitor; for fold induction at 1 µM: 1 μM Cbl-b inhibitor; for fold induction at 4 µM: 4 μM Cbl-b inhibitor
# Summary of the method: (§1)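 T-cells were stimulated with anti-CD3 antibody alone or with anti-CD28 antibody, in the presence or absence of Cbl-b inhibitor. IL-2 secretion or CD25 surface staining was measured, and values expressed as fold over the uninhibited baseline […].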
# [3] = test system: T-cell; assay: CD25 cell surface staining on T-cells co-stimulated with anti-CD3 and anti-CD28 antibody (Biological Example 2); assay type: cell-based, human; settings: Homo sapiens, T-cell, fold change over baseline, primary human total T-cells, read-out: CD25 staining Anti-CD3/Anti-CD28 stimulation; for fold induction at 0.3 µM: 0.3 μM Cbl-b inhibitor; for fold induction at 1 µM: 1 μM Cbl-b inhibitor; for fold induction at 4 µM: 4 μM Cbl-b inhibitor
# Summary of the method: as §1
# [4] = test system: T-cell; assay: CD25 cell surface staining on T-cells stimulated with anti-CD3 antibody alone (Biological Example 2); assay type: cell-based, human; settings: T-cell, fold change over baseline, primary human total T-cells, read-out: CD25 staining Anti-CD3 stimulation; for fold induction at 1 µM: 1 μM Cbl-b inhibitor; for fold induction at 8 µM: 8 μM Cbl-b inhibitor
# [5] = target: T1, Cbl-b; assay: Cbl-b inhibition assay (Cbl-b activity assay, FRET, Biological Example 1; 100 mM NaCl, 60 nM Src kinase); assay type: biochemical; settings: upper bound stated in text lists; read-out: IC50 values in the Cbl-b inhibition assay of Biological Example 1
# Summary of the method: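 Inhibitor activity is measured as reduced terbium-to-fluorescein FRET between streptavidin-terbium on biotinylated Cbl-b and Bodipy-fluorescein ubiquitin carried by an irreversible UbcH5B-Ub conjugate, binding of which depends on Src phosphorylation of Cbl-b.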
# T1 sequence (Q13191 36-427): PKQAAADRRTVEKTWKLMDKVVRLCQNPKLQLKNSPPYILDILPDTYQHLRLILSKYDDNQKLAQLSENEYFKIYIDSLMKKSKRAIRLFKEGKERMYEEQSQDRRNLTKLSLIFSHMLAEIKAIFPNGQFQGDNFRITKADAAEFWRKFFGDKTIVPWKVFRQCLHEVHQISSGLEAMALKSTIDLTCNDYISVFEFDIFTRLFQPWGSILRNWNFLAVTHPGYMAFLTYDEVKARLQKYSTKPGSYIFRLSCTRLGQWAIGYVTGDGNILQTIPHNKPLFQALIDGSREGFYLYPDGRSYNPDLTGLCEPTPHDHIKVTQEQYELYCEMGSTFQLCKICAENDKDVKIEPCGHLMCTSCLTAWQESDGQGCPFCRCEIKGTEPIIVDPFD
SMILES,IC50 [1],fold induction at 0.3 µM [2],fold induction at 1 µM [2],fold induction at 4 µM [2],fold induction at 0.3 µM [3],fold induction at 1 µM [3],fold induction at 4 µM [3],fold induction at 1 µM [4],fold induction at 8 µM [4],IC50 [5]
"Cn1cnnc1CC1(c2cccc(NC(=O)c3nc4c(C(F)(F)F)cccc4[nH]3)c2)COC1 [Compound 335, N-(3-{3-[(4-methyl-1,2,4-triazol-3-yl)methyl]oxetan-3-yl}phenyl)-4-(trifluoromethyl)-1H-1,3-benzodiazole-2-carboxamide]",< 0.1 µM,2.51 to 5,5 to 7.5,> 7.5,1.31 to 1.5,1.51 to 1.75,1.51 to 1.75,0.801 to 1,> 1,≤ 0.1 µM
"Cc1cc(C(=O)Nc2cccc(C3(Cc4nncn4C)COC3)c2)nc(C2CC2)n1 [Compound 336, 2-cyclopropyl-6-methyl-N-(3-(3-((4-methyl-4H-1,2,4-triazol-3-yl)methyl)oxetan-3-yl)phenyl)pyrimidine-4-carboxamide]",< 0.1 µM,5 to 7.5,> 7.5,> 7.5,1.31 to 1.5,> 1.76,1.51 to 1.75,> 1,> 1,≤ 0.1 µM
"C[C@H](Cc1nncn1C)c1cc(NC2COC2)nc(N2Cc3c(cccc3C(F)(F)F)C2=O)c1 [Compound 352, 2-{4-[(2R)-1-(4-methyl-4H-1,2,4-triazol-3-yl)propan-2-yl]-6-[(oxetan-3-yl)amino]pyridin-2-yl}-4-(trifluoromethyl)-2,3-dihydro-1H-isoindol-1-one]",< 0.1 µM,1.01 to 2.5,1.01 to 2.5,5 to 7.5,1.01 to 1.3,1.01 to 1.3,1.31 to 1.5,0.801 to 1,> 1,≤ 0.1 µM
"CC(C)Nc1cc([C@H](C)Cc2nncn2C)cc(N2Cc3c(cccc3C(F)(F)F)C2=O)n1 [Compound 353, 2-{4-[(2R)-1-(4-methyl-4H-1,2,4-triazol-3-yl)propan-2-yl]-6-[(propan-2-yl)amino]pyridin-2-yl}-4-(trifluoromethyl)-2,3-dihydro-1H-isoindol-1-one]",< 0.1 µM,1.01 to 2.5,2.51 to 5,> 7.5,1.01 to 1.3,1.01 to 1.3,1.31 to 1.5,0.801 to 1,> 1,≤ 0.1 µM
"CCOc1cc([C@H](C)Cc2nncn2C)cc(N2Cc3c(cccc3C(F)(F)F)C2=O)n1 [Compound 358, (R)-2-(6-ethoxy-4-(1-(4-methyl-4H-1,2,4-triazol-3-yl)propan-2-yl)pyridin-2-yl)-4-(trifluoromethyl)isoindolin-1-one]",< 0.1 µM,2.51 to 5,5 to 7.5,> 7.5,1.01 to 1.3,1.31 to 1.5,1.31 to 1.5,> 1,> 1,≤ 0.1 µM
"CCNc1cc([C@H](C)Cc2nncn2C)cc(N2Cc3c(cccc3C(F)(F)F)C2=O)n1 [Compound 360, (R)-2-(6-(ethylamino)-4-(1-(4-methyl-4H-1,2,4-triazol-3-yl)propan-2-yl)pyridin-2-yl)-4-(trifluoromethyl)isoindolin-1-one]",< 0.1 µM,2.51 to 5,> 7.5,> 7.5,1.31 to 1.5,1.51 to 1.75,1.51 to 1.75,> 1,> 1,≤ 0.1 µM
